Source: US9233109B2, “Compositions, methods of use, and methods of treatment” (UNIVERSITY OF FLORIDA RESEARCH FOUNDATION, INC., priority 2010, dated 2016)
Like-named read-outs stand apart in the source and are kept apart here.

Legend:
α7 nAChR = molecular target: T1, α7 nAChR (Homo sapiens, UniProt P36544); test: Bath application of test compound: modulation of ACh-evoked net charge responses in Xenopus oocytes; assay type: cell-based
T1 construct: expressed in transfected cells; host or cells: Xenopus laevis oocytes injected with cRNA
T1 sequence (P36544 23-502): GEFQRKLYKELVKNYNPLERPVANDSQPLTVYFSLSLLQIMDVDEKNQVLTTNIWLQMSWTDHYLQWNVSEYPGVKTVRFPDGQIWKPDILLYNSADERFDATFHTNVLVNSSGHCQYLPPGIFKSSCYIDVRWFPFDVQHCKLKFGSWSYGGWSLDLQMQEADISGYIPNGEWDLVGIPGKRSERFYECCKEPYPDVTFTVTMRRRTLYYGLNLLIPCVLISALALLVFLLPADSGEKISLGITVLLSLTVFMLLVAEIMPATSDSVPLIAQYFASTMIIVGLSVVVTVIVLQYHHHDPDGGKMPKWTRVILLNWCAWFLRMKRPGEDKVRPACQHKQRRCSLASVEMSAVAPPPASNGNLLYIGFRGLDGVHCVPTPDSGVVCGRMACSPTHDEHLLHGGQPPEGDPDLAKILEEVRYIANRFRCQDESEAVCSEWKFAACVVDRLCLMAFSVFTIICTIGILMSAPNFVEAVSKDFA
Procedure: (§1) We have extended this approach to defined receptor subtypes expressed in Xenopus oocytes. Experiments were conducted on cells expressing HS α4β2 (α4(2)β2(3)), LS α4β2 (α4(3)β2(2)), or α7 nAChR.
(§2) cDNA: Human nAChR receptor clones and concatamers were obtained from Dr. Jon Lindstrom (University of Pennsylvania, Philadelphia Pa.). The human RIC-3 clone, obtained from Dr. Millet Treinin (Hebrew University, Jerusalem Israel), was co-injected with α7 to improve the levels and speed of receptor expression.
(§3) Oocyte preparation: Oocytes were surgically removed from mature Xenopus laevis frogs and injected with 50 nl (5-20 ng) of appropriate nAChR subunit cRNAs as described previously (Horenstein et al., 2008).
(§4) Experiments were conducted using OpusXpress 6000A (Molecular Devices, Union City Calif.) and analyzed as described previously (Papke and Papke, 2002; Horenstein et al., 2008; Papke and Stokes, 2010).
(§5) Initial experiments were run for 50 minutes after the introduction of the experimental compounds into the bath.

α4β2α5 nAChR = molecular target: T2, α4β2α5 nAChR (Homo sapiens, UniProt P17787+P30532+P43681); test: Agonist activation of α4β2α5 receptors in oocytes; assay type: cell-based
T2 construct: expressed in transfected cells; host or cells: Xenopus laevis oocytes injected with cRNA
T2 sequence (P17787 26-502): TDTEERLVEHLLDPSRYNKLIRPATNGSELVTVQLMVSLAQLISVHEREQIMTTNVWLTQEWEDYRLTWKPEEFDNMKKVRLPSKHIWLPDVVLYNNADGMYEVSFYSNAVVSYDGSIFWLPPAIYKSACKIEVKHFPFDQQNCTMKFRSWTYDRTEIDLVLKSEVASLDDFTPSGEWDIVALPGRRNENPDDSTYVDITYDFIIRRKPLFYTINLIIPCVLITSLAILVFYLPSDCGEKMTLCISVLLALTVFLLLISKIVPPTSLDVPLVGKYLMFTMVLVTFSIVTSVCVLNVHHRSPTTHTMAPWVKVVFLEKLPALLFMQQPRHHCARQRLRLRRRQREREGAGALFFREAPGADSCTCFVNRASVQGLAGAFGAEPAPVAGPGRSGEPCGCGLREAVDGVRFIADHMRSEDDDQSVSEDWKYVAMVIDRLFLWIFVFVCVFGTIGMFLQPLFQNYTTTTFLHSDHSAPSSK
T2 sequence (P43681 29-627 limits assumed): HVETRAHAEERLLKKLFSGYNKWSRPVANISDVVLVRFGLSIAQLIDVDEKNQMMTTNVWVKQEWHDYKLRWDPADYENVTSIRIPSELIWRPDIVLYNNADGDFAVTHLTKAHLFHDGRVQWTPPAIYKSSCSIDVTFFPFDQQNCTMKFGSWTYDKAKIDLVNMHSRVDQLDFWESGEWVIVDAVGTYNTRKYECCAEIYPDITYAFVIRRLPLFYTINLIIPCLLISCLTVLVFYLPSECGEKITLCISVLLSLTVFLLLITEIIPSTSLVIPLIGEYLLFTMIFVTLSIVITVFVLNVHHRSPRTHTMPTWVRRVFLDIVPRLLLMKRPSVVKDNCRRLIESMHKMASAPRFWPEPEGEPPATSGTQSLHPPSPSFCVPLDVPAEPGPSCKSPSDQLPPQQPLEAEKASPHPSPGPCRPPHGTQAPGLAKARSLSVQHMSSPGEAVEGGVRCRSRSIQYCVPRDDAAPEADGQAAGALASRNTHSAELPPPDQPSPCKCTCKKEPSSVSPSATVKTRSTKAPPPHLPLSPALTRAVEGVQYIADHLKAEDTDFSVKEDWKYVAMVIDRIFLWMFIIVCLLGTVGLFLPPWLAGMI
T2 sequence (P30532 23-468): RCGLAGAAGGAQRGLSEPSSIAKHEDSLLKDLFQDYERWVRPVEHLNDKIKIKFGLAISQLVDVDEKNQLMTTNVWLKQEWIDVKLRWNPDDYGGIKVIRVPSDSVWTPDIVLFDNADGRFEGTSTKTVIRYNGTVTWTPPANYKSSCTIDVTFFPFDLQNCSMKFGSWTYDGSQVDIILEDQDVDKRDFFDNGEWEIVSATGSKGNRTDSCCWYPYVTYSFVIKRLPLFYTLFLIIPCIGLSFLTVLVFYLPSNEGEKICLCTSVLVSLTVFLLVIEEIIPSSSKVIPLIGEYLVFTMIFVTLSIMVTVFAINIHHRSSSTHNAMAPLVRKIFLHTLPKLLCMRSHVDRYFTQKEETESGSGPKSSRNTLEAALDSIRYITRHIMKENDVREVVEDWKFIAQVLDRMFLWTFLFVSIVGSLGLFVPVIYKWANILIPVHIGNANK
From the text: (§6) Recently, attention has been drawn to α5 as a member of a gene cluster associated with high risk for cancer and heavy smoking (Saccone et al., 2007). In the periphery, α5 is most likely expressed in association with the other members of its gene cluster, α3 and β4.

α4(3)β2(2) nAChR [1] = molecular target: T3, α4(3)β2(2) nAChR (Homo sapiens, UniProt P17787+P43681); test: Mecamylamine-sensitive steady-state activation during bath application, oocytes; assay type: cell-based; settings: bath concentration 300 nM
T3 construct: expressed in transfected cells; host or cells: Xenopus laevis oocytes injected with cRNA
T3 sequence (P17787 26-502): as the sequence (P17787 26-502) above
T3 sequence (P43681 29-627 limits assumed): as the sequence (P43681 29-627 limits assumed) above
T3 sequence (P43681 29-627 limits assumed): as above
From the text: (§7) In our bath application experiments we frequently saw small responses at the beginning of the bath applications, and sometimes there were significant shifts in baseline holding current that occurred over the long periods of recording. While increases in baseline current would be consistent with the stimulation of steady-state currents, baseline shifts can occur for other reasons as well, especially if the quality of the voltage clamp diminished over a long period of recording.
(§8) Even after just 30 minutes of continual bath application, a large shift in baseline was apparent. […] Table 3 provides a summary of the mecamylamine-sensitive steady-state currents measured for each of the drug-receptor combinations associated with drifting baselines.

α4(2)β2(2)α5 nAChR [2] = molecular target: T4, α4(2)β2(2)α5 nAChR (Homo sapiens, UniProt P17787+P30532+P43681); test: as above; assay type: cell-based; settings: bath concentration 1 μM
T4 construct: expressed in transfected cells; host or cells: Xenopus laevis oocytes injected with cRNA
T4 sequence (P17787 26-502): as the sequence (P17787 26-502) above
T4 sequence (P43681 29-627 limits assumed): as the sequence (P43681 29-627 limits assumed) above
T4 sequence (P30532 23-468): as the sequence (P30532 23-468) above
From the text: as §7, §8

α4(2)β2(3) nAChR = molecular target: T5, α4(2)β2(3) nAChR (Homo sapiens, UniProt P17787+P43681); test: as above; assay type: cell-based; settings: bath concentration 100 nM
T5 construct: expressed in transfected cells; host or cells: Xenopus laevis oocytes injected with cRNA
T5 sequence (P17787 26-502): as the sequence (P17787 26-502) above
T5 sequence (P43681 29-627 limits assumed): as the sequence (P43681 29-627 limits assumed) above
T5 sequence (P17787 26-502): as the sequence (P17787 26-502) above
From the text: as §7, §8

[3] = Mineur et al., 2009; cited from earlier work
α4(3)β2(2) nAChR [4] = molecular target: T3, α4(3)β2(2) nAChR; test: Acute co-application of ACh and cytisine, model fit of peak current responses in oocytes; assay type: cell-based
From the text: FIG. 2.1 illustrates a model applied to the activation of nAChR by simultaneous co-applications of the full agonist “a” and a partial agonist “p”. […] The IMax of the full agonist is assigned a value of 1. The first and second terms of the equation represent the activation produced by the full agonist and partial agonists, respectively, scaled by their potencies and weighted by receptor availability. The third term allows noncompetitive effects of the partial agonist. If such noncompetitive activity is inhibitory, then ni is assigned a negative value.
Acute responses to agonist/partial agonist applications were fit with a general non-linear regression model, implemented as an option in a Windows data analyses and graphical presentation program (CAS Data Forge). The terms na, np, ni, Rmaxp, Inmaxp, EC50a, EC50p, and IC50p were given starting estimates based on the data obtained with the drugs applied separately. Tolerance factor (typically 1×10^−5) range limits for each parameter were specified. […] A predicted matrix was then calculated for each cell of the matrix, based on the a and p concentrations, the set of parameters listed above, and the governing equation. The residuals across all cells were calculated, and an iterative process was utilized to revise the parameters to minimize the residuals and allow the estimates to be revised accordingly. When the difference of estimates for any given parameter for consecutive iterations fell below the tolerance factor, that parameter was fixed at the last estimate. When all parameters were fixed or no convergent solution was found, the process stopped, and the set of parameters representing the best fit along with the resulting matrix was provided.
The Imax for the full agonist was constrained to 1 while the Imax for the partial agonist was a free parameter <1.0.
Curve fit values for the drugs when applied alone were used as seeds for the competitive interactions.

α4β2 receptors = settings: cited from earlier work
α4(2)β2(2)α5 nAChR [5] = molecular target: T4, α4(2)β2(2)α5 nAChR; test: Bath application of test compound: inhibition of ACh-evoked responses in Xenopus oocytes; assay type: cell-based
Procedure: as §2, §3, §4, §5, §6

[6] = molecular target: T6, HS α4β2 (α4(2)β2(3)) nAChR (Homo sapiens, UniProt P17787+P43681); test: Bath application of test compound: inhibition of ACh-evoked peak currents in Xenopus oocytes; assay type: cell-based
T6 construct: expressed in transfected cells; host or cells: Xenopus laevis oocytes injected with cRNA
T6 sequence (P17787 26-502): as above
T6 sequence (P43681 29-627 limits assumed): as the sequence (P43681 29-627 limits assumed) above
T6 sequence (P17787 26-502): as the sequence (P17787 26-502) above
Procedure: as §1, §2, §3, §4, §5

[7] = molecular target: T7, LS α4β2 (α4(3)β2(2)) nAChR (Homo sapiens, UniProt P17787+P43681); test: as above; assay type: cell-based
T7 construct: expressed in transfected cells; host or cells: Xenopus laevis oocytes injected with cRNA
T7 sequence (P17787 26-502): as above
T7 sequence (P43681 29-627 limits assumed): as the sequence (P43681 29-627 limits assumed) above
T7 sequence (P43681 29-627 limits assumed): as above
Procedure: as §1, §2, §3, §4, §5

[8] = test system: α4(3)β2(2), α4(2)β2(3) and α7 nAChR; test: Baseline shifts / steady-state currents in the presence of bath-applied 3-pyr-Cyt, oocytes; assay type: cell-based, human; settings: bath application
Procedure: FIG. 2.8 is a summary of the effects of bath-applied 3-pyr-Cyt on α4(3)β2(2) and α4(2)β2(3) and α7 nAChR. Bath application experiments were conducted as described for cytisine, varenicline, and nicotine.
One such compound is 3-(pyridin-3′-yl)-cytisine (3-pyr-Cyt), an agent proposed to have very little likelihood of off-target α7 activity (Mineur et al., 2009).

[9] = IC50, inhibition of ACh-evoked responses by prolonged bath application
[10] = noncompetitive inhibition factor
[11] = IC50 for the inhibition of ACh evoked responses by bath applications of agonists and partial agonists

C[N+](C)(C)CCO [choline]
IC50 (α7 nAChR; [9]): 6700 ± 1200 nM

CN1CCCC1c1cccnc1 (stereo not shown) [Nicotine, nicotine]
efficacy for α4β2α5 receptors, % that of ACh (α4β2α5 nAChR): approximately 35%

O=c1cccc2n1C[C@@H]1CNC[C@H]2C1 [Cytisine, cytisine]
Mecamylamine-sensitive steady-state activation relative to ACh maximum evoked transient responses (α4(3)β2(2) nAChR [1]): 1.1 ± 0.2% | Mecamylamine-sensitive steady-state activation relative to ACh maximum evoked transient responses (α4(2)β2(2)α5 nAChR [2]): 2.5 ± 0.5% | Mecamylamine-sensitive steady-state activation relative to ACh maximum evoked transient responses (α4(2)β2(3) nAChR): 1.4 ± 0.1% | potency at reducing immobility compared with mecamylamine [3]: equipotent as the pure antagonist mecamylamine | Activation n (Hill coefficient, best fit) (α4(3)β2(2) nAChR [4]): 0.61 | best fit IC50 relative to EC50 (α4(3)β2(2) nAChR [4]): three-fold lower | Inhibition Inmax of the partial agonist (best fit) (α4(3)β2(2) nAChR [4]; [10]): 0.7 | Inhibition n (Hill coefficient, best fit) (α4(3)β2(2) nAChR [4]; [10]): 1.7 | IC50 (α4(3)β2(2) nAChR [4]; noncompetitive inhibition factor, read-out: Inhibition IC50 of the partial agonist (best fit)): 32000 nM | EC50 (α4(3)β2(2) nAChR [4]; peak current, read-out: Activation EC50 (best fit)): 88000 nM | Activation Rmax (best fit) (α4(3)β2(2) nAChR [4]; relative to ACh maximum, ACh constrained to 1): 0.35 | EC50 (α4β2α5 nAChR): 18 ± 9 nM | efficacy for α4β2α5 receptors, % that of ACh (α4β2α5 nAChR): 6±1% | efficacy for α4β2 receptors, % that of ACh (α4β2 receptors): < 20% | IC50 (α7 nAChR; [9]): 300 ± 200 nM | IC50 (α7 nAChR; [11]): 1200 nM | IC50 (α4(2)β2(2)α5 nAChR [5]): 3.2 ± 1.6 nM | IC50 [6]: 8 ± 5 nM | IC50 [7, 9]: 85 ± 44 nM | IC50 [7, 11]: 27 ± 14 nM

O=c1c(-c2cccnc2)ccc2n1C[C@@H]1CNC[C@H]2C1 [3-pyr-Cyt, 3-(pyridin-3′-yl)-cytisine]
baseline shifts or steady-state currents [8]: no baseline shifts or steady-state currents | IC50 (α7 nAChR; Example 1, average of 30-40 min time points, 60 μM ACh, net charge, read-out: IC50, inhibition of ACh-evoked responses by prolonged bath application): 103000 ± 25000 nM | concentration at which significant inhibition of α7-mediated responses was achieved (α7 nAChR; highest concentration tested): 100 µM | IC50 (α4(2)β2(2)α5 nAChR [5]; read-out: IC50 for the inhibition of ACh evoked responses by bath applications of agonists and partial agonists, Table 2, after 30±4 min bath application, 3 μM ACh): 2300 nM | effect on ACh-evoked responses at low concentration ([6]; 30 nM in bath): partial inhibition | IC50 ([6]; Example 1, average of 30-40 min time points, 10 μM ACh, peak currents, read-out: IC50, inhibition of ACh-evoked responses by prolonged bath application): 653 ± 500 nM | IC50 ([6]; read-out: IC50 for the inhibition of ACh evoked responses by bath applications of agonists and partial agonists, Table 2, after 30±4 min bath application, 10 μM ACh): 600 ± 500 nM | IC50 ([7]; Example 1, average of 30-40 min time points, 30 μM ACh, peak currents, read-out: IC50, inhibition of ACh-evoked responses by prolonged bath application): 5400 ± 4000 nM | IC50 ([7]; read-out: IC50 for the inhibition of ACh evoked responses by bath applications of agonists and partial agonists, Table 2, after 30±4 min bath application, 30 μM ACh): 16000 nM
